From US20220193256A1, “NANO-ANTIBIOTICS BASED ON SINGLE-CHAIN DEXTRAN NANOPARTICLES” (priority 2019, published 2022)
Values after ≈ are worked out from the molar mass of the structure shown. Marks after values point to notes of the source that are not given here.

Experiments:
P. aeruginosa = experiment: MIC 50 of free antibiotics and nanoconjugates; type: cell-based
Method: (§1) All test and quality control strains were recovered from frozen storage (−80° C.) and cultured at 35±2° C. for 18-24 h.
(§2) All test articles were dissolved in sterile ultra-pure water at a concentration of 2.56 mg/mL. […] 100 and 200 μL of drug-free medium was added to positive and negative control wells, respectively. Suspensions equivalent to a McFarland 0.5 standard were prepared for each test strain in 5 mL sterile phosphate-buffered saline (PBS) and further diluted 1:150 in CA-MHB to provide an inoculum of 2-8×10^5 CFU/mL. 100 μL of each inoculum was dispensed into all wells—except negative control wells (100 μL sterile water added)—to provide an inoculum of ˜5×10^5 CFU/well and a final volume of 200 μL per well. Assay plates were incubated according to CLSI M07-A10 guidelines of 35±2° C. for 16-20 h in air.

PACC#10 = experiment: MIC by visual inspection, P. aeruginosa panel; type: cell-based; settings: Pseudomonas aeruginosa; PACC#10, clinical isolate, mucoid phenotype; read-out: Test Article MIC
Method: (§3) The clinical isolates were obtained from the Biobank of the Hospital Donostia/Biodonostia (San Sebastian, Spain) with permission. MIC is obtained by visual inspection and considered the minimum concentration at which no bacterial growth can be detected (i. e. the buffer appears transparent) when bacteria was incubated at gradient concentration of test compound.

P. aeruginosa ATCC 27853 [1] = experiment: MIC by visual inspection, P. aeruginosa panel; type: cell-based; settings: Pseudomonas aeruginosa, ATCC27853; P. aeruginosa ATCC 27853, reference strain; read-out: Test Article MIC
Method: as §3

PACC#6 = experiment: MIC by visual inspection, P. aeruginosa panel; type: cell-based; settings: Pseudomonas aeruginosa; read-out: Test Article MIC
Method: as §3

PACC#8 = experiment: MIC by visual inspection, P. aeruginosa panel; type: cell-based; settings: Pseudomonas aeruginosa; PACC#8, clinical isolate; read-out: Test Article MIC
Method: as §3

PACC#5 = experiment: MIC by visual inspection, P. aeruginosa panel; type: cell-based; settings: Pseudomonas aeruginosa; PACC#5, clinical isolate, mucoid phenotype; read-out: Test Article MIC
Method: as §3

PACC#9 = experiment: MIC by visual inspection, P. aeruginosa panel; type: cell-based; settings: Pseudomonas aeruginosa; PACC#9, clinical isolate, mucoid phenotype; read-out: Test Article MIC
Method: as §3

PAO1 DSMZ 22644 = experiment: MIC by visual inspection, P. aeruginosa panel; type: cell-based; settings: Pseudomonas aeruginosa; PAO1 DSMZ 22644, investigational strain; read-out: Test Article MIC
Method: as §3

PACC#7 = experiment: MIC by visual inspection, P. aeruginosa panel; type: cell-based; settings: Pseudomonas aeruginosa; PACC#7, clinical isolate, mucoid phenotype; read-out: Test Article MIC
Method: as §3

PA14 DSMZ 19882 = experiment: MIC by visual inspection, P. aeruginosa panel; type: cell-based; settings: Pseudomonas aeruginosa; PA14 DSMZ 19882, investigational strain; read-out: Test Article MIC
Method: as §3

S. aureus = experiment: MIC 50 of free antibiotics and nanoconjugates; type: cell-based
Method: as §1, §2

[2] = Release profile test of tobramycin in PBS (dialysis tubes, LC-MS); type: in vitro ADME; settings: PBS pH 7.4, 37° C.
Method: 1 mL dialysis tubes (Float-a-lyzer®) were used whose membrane is based on MWCO 8-10 kDa cellulose ester. […] The studies were performed in a chamber at 37° C. and stirring at 250 rpm. Samples were taken at different times and analyzed by LC-MS.

[3] = test system: biofilm of Pseudomonas Aeruginosa PAO1 gfp; experiment: Testing against biofilm; type: cell-based; settings: 3-day biofilm treated for 12 h, tobramycin concentration 2 μg/mL
Method: Continuous biofilm of Pseudomonas Aeruginosa PAO1 gfp in LB medium was grown for 3 days. […] Images were obtained using a 20×/0.80 air objective with Zeiss LSM 800 Confocal laser scanning microscope. Simulated fluorescence projections and orthogonoal views sections were processed using ImageJ software. Data were analysed with COMSTAT2 software.

E. aerogenes KPC 108 = experiment: MIC, antimicrobial susceptibility test (CLSI M07-A10); type: cell-based
Method: as §1, §2

P. aeruginosa ATCC 27853 [4] = experiment: as above; type: cell-based
Method: as §1, §2

A. baumannii NCTC 12156 = experiment: as above; type: cell-based
Method: as §1, §2

E. coli ATCC BAA-2469 = experiment: as above; type: cell-based; settings: Escherichia coli, ATCCBAA2469; read-out: Test Article MIC
Method: as §1, §2

E. coli ATCC 25922 = experiment: as above; type: cell-based
Method: as §1, §2

[5] = test system: E. cloacae complex KPC 114; experiment: as above; type: cell-based
Method: as §1, §2

P. aeruginosa ATCC 13437 = experiment: as above; type: cell-based; settings: replicates 1 and 2, as tobramycin concentration
Method: as §1, §2

[6] = test system: A. baumannii ATCC BAA-747; experiment: as above; type: cell-based
Method: as §1, §2

K. pneumoniae ATCC 43816 = experiment: as above; type: cell-based
Method: as §1, §2

[7] = test system: K. pneumoniae ATCC BAA-2146; experiment: as above; type: cell-based; settings: Klebsiella pneumoniae, ATCCBAA2146; read-out: Test Article MIC
Method: as §1, §2

[8] = In vivo pharmacokinetic profile in the lungs after oropharyngeal deposition; design: species or system Sprague Dawley rats; settings: male, Sprague Dawley, rat, lung homogenate, other: oropharyngeal deposition, 10 mg/kg
Method: The administration technique was oropharyngeal deposition. Following administration, terminal lung samples were collected at the following time-points: 0.083, 0.25, 0.5, 1, 2, 4, 8, 12, 24 h post-dose.
For the purpose of the invention, the AUC was measured by the trapezoidal method using the following formula: […]

Colistin sulfate [Free Colistin sulfate]
MIC 50, Antibiotic conc. (P. aeruginosa): 1 to 5 µg/mL

NC[C@H]1O[C@H](O[C@H]2[C@H](O)[C@@H](O[C@H]3O[C@H](CO)[C@@H](O)[C@H](N)[C@H]3O)[C@H](N)C[C@@H]2N)[C@H](N)C[C@@H]1O [Tobramycin, tobramycin]
MIC (PACC#10): 1 µg/mL (≈ 2.14 µM)
MIC (P. aeruginosa ATCC 27853 [1]): 0.5 µg/mL (≈ 1.07 µM)
MIC (PACC#6): ≥ 4 µg/mL
MIC (PACC#8): 0.5 µg/mL (≈ 1.07 µM)
MIC (PACC#5): 0.5 µg/mL (≈ 1.07 µM)
MIC (PACC#9): 0.5 µg/mL (≈ 1.07 µM)
MIC (PAO1 DSMZ 22644): 0.5 µg/mL (≈ 1.07 µM)
MIC (PACC#7): 0.5 µg/mL (≈ 1.07 µM)
MIC (PA14 DSMZ 19882): 0.5 µg/mL (≈ 1.07 µM)
MIC 50, Antibiotic conc. (S. aureus): 0.5 to 1 µg/mL
MIC 50, Antibiotic conc. (P. aeruginosa): 0.5 to 1 µg/mL
Tobramycin released (%) ([2]; time 0 hour): 0.30%
Tobramycin released (%) ([2]; time 1 hour): 2.91%
Tobramycin released (%) ([2]; time 2 hour): 7.57%
Tobramycin released (%) ([2]; time 4 hour): 19.03%
Tobramycin released (%) ([2]; time 8 hour): 28.72%
Tobramycin released (%) ([2]; time 24 hour): 58.41%
Tobramycin released (%) ([2]; time 48 hour): 78.88%
Tobramycin released (%) ([2]; time 72 hour): 87.20%
% Biomass (μm^3/μm^2) [3]: 68.1%
% Biomass (μm^3/μm^2) ([3]; listed as tobramycin): 68.1%
Test Article MIC (E. aerogenes KPC 108; E. aerogenes KPC 108, replicates 1 and 2, as tobramycin concentration): 4 µg/mL
MIC (E. aerogenes KPC 108; Klebsiella aerogenes, KPC108, read-out: Test Article MIC): 4 µg/mL (≈ 8.56 µM)
Test Article MIC (P. aeruginosa ATCC 27853 [4]; P. aeruginosa ATCC 27853, replicates 1 and 2, as tobramycin concentration): 1^b μg/mL
MIC (P. aeruginosa ATCC 27853 [4]; Pseudomonas aeruginosa, ATCC27853, read-out: Test Article MIC): 1 µg/mL (≈ 2.14 µM)
Test Article MIC (A. baumannii NCTC 12156; A. baumannii NCTC 12156, replicates 1 and 2, as tobramycin concentration): 4 µg/mL
MIC (A. baumannii NCTC 12156; Acinetobacter baumannii, NCTC12156, read-out: Test Article MIC): 4 µg/mL (≈ 8.56 µM)
MIC (E. coli ATCC BAA-2469): > 128 µg/mL
Test Article MIC (E. coli ATCC 25922; E. coli ATCC 25922, replicates 1 and 2, as tobramycin concentration): 2^a μg/mL
MIC (E. coli ATCC 25922; Escherichia coli, ATCC25922, read-out: Test Article MIC): 2 µg/mL (≈ 4.28 µM)
Test Article MIC ([5]; E. cloacae complex KPC 114, replicates 1 and 2, as tobramycin concentration): 32 µg/mL
MIC ([5]; Enterobacter cloacae, read-out: Test Article MIC): 32 µg/mL (≈ 68.4 µM)
Test Article MIC (P. aeruginosa ATCC 13437; P. aeruginosa ATCC 13437, listed as Free Tobramycin): 64 µg/mL
MIC (P. aeruginosa ATCC 13437; Pseudomonas aeruginosa, ATCC13437, P. aeruginosa ATCC 13437, read-out: Test Article MIC): 128 µg/mL (≈ 274 µM)
Test Article MIC ([6]; A. baumannii ATCC BAA-747, replicates 1 and 2, as tobramycin concentration): 0.5 µg/mL
MIC ([6]; Acinetobacter baumannii, ATCCBAA747, read-out: Test Article MIC): 0.5 µg/mL (≈ 1.07 µM)
Test Article MIC (K. pneumoniae ATCC 43816; K. pneumoniae ATCC 43816, replicates 1 and 2, as tobramycin concentration): 0.5 µg/mL
MIC (K. pneumoniae ATCC 43816; Klebsiella pneumoniae, ATCC43816, read-out: Test Article MIC): 0.5 µg/mL (≈ 1.07 µM)
MIC [7]: > 128 µg/mL
AUC [8]: 1110 µg·h/mL

gentamycin sulfate [Free Gentamycin sulfate]
MIC 50, Antibiotic conc. (S. aureus): 1 to 5 µg/mL
MIC 50, Antibiotic conc. (P. aeruginosa): 1 to 5 µg/mL
